Measurements published in patent US9684253B2, “Triphenylamine derivative, electrophotographic photosensitive member, and image forming apparatus” (KYOCERA Document Solutions Inc., priority 2014, dated 2017).

Assay: Evaluation of triphenylamine derivative solubility in tetrahydrofuran
Format: physicochemical
Details: for Solubility: tetrahydrofuran, 25° C., {100/(100+W)}×100; for solubility in a solvent used for photosensitive layer formation (in words): as shown by Table 1
Protocol: Solubility of each of the triphenylamine derivatives (HT-1) to (HT-8), (HT-A), and (HT-B) was evaluated. More specifically, solubility of the obtained triphenylamine derivative was evaluated by calculating percentage solubility according to the following method. In the method, a small amount of tetrahydrofuran was added to 100 mg of the triphenylamine derivative at 25° C. Next, the mixture was shaken and left to stand, and the above steps were repeated in order to find an additive amount W (mg) of tetrahydrofuran for which solubility of the triphenylamine derivative was saturated. The additive amount W was used to calculate the percentage solubility according to equation (1) shown below. […] Solubility (%)={100/(100+W)}×100 Equation (1): […]

| Solubility | solubility in a solvent used for photosensitive layer formation (in words) | Structure (SMILES) |
| --- | --- | --- |
| 12% |  | CCc1cccc(C)c1N(c1ccc(/C=C/C=C/c2ccccc2)cc1)c1ccc(-c2ccc(N(c3ccc(/C=C/C=C/c4ccccc4)cc3)c3c(C)cccc3CC)cc2)cc1 [HT-1] |
| 14% |  | Cc1ccccc1N(c1ccc(/C=C/C=C/c2ccccc2)cc1)c1ccc(-c2ccc(N(c3ccc(/C=C/C=C/c4ccccc4)cc3)c3ccccc3C)cc2)cc1 [HT-3] |
| 20% |  | CCc1cccc(OC)c1N(c1ccc(/C=C/C=C/c2ccc(C)cc2)cc1)c1ccc(-c2ccc(N(c3ccc(/C=C/C=C/c4ccc(C)cc4)cc3)c3c(CC)cccc3OC)cc2)cc1 [HT-4] |
| 18% |  | CCc1cccc(C)c1N(c1ccc(/C=C/C=C/c2cccc(OC)c2)cc1)c1ccc(-c2ccc(N(c3ccc(/C=C/C=C/c4cccc(OC)c4)cc3)c3c(CC)cccc3OC)cc2)cc1 [HT-5] |
| 14% |  | Cc1ccc(N(c2ccc(/C=C/C=C/c3ccccc3)cc2)c2ccc(-c3ccc(N(c4ccc(/C=C/C=C/c5ccccc5)cc4)c4ccc(C)cc4C)cc3)cc2)c(C)c1 [HT-7] |
| 12% |  | C(/C=C/c1ccc(N(c2ccc(-c3ccc(N(c4ccc(/C=C/C=C/c5ccccc5)cc4)c4ccccc4-c4ccccc4)cc3)cc2)c2ccccc2-c2ccccc2)cc1)=C\c1ccccc1 [HT-8] |
| ≦1% | poor solubility | C(/C=C/c1ccc(N(c2ccccc2)c2ccc(-c3ccc(N(c4ccccc4)c4ccc(/C=C/C=C/c5ccccc5)cc4)cc3)cc2)cc1)=C\c1ccccc1 [HT-A, reference compound] |
| 7% | poor solubility | Cc1cccc(N(c2ccc(/C=C/C=C/c3ccccc3)cc2)c2ccc(-c3ccc(N(c4ccc(/C=C/C=C/c5ccccc5)cc4)c4cccc(C)c4)cc3)cc2)c1 [HT-B, reference compound] |

| Structure (SMILES) | Solubility | solubility in a solvent used for photosensitive layer formation (in words) |
| --- | --- | --- |
| CCc1cccc(C)c1N(c1ccc(/C=C/C=C/c2ccc(C)cc2)cc1)c1ccc(-c2ccc(N(c3ccc(/C=C/C=C/c4ccc(C)cc4)cc3)c3c(C)cccc3CC)cc2)cc1 [HT-2] | 12% |  |
